# Values quoted from earlier work, collected in PubChem BioAssay AID1259409 (Chemical Carcinogenesis Research Information System (CCRIS), 2018).
# “And” between values parts separate entries of the source, which are not always exact repeats. Identical values can stand only once.
# Test system: rodent chemically induced tumor inhibition, incidence and multiplicity
# Assay: CCRIS tumor inhibitor studies
structure (smiles),measurement,setting,value
S=C=NCCc1ccccc1,"tumour outcome (control, treated, inhibition, significance)","Carcinogen: 4-(N-NITROSOMETHYLAMINO)-1-(3-PYRIDYL)-1-BUTANONE, 64091-91-4, Dose [Inhibitor]: 0, 3 UMOL/G/DIET BEGINNING 1 WK PRIOR TO CARCINOGEN TREATMENT AND CONTINUING FOR 21 WK (STUDY DURATION: 104 WK), Route [Inhibitor]: ORAL, Species: RAT, Strain/Sex: F344/MALE, Target Tissue: Type of Lesion: NASAL CAVITY: BENIGN TUMOR, Dose [Carcinogen]: 1.76 MG/KG 3/WK FOR 20 WK, Promoter: NONE USED","8/40 (20%), 6/40 (15%), 25%, not calculated"
same,"tumour outcome (control, treated, inhibition, significance)","Carcinogen: 4-(N-NITROSOMETHYLAMINO)-1-(3-PYRIDYL)-1-BUTANONE, 64091-91-4, Dose [Inhibitor]: 0, 3 UMOL/G/DIET BEGINNING 1 WK PRIOR TO CARCINOGEN TREATMENT AND CONTINUING FOR 21 WK (STUDY DURATION: 104 WK), Route [Inhibitor]: ORAL, Species: RAT, Strain/Sex: F344/MALE, Target Tissue: Type of Lesion: NASAL CAVITY: SQUAMOUS-CELL CARCINOMA, Dose [Carcinogen]: 1.76 MG/KG 3/WK FOR 20 WK, Promoter: NONE USED","3/40 (8%), 1/40 (3%), 63%, not calculated"
same,"tumour outcome (control, treated, inhibition, significance)","Carcinogen: 4-(N-NITROSOMETHYLAMINO)-1-(3-PYRIDYL)-1-BUTANONE, 64091-91-4, Dose [Inhibitor]: 0, 5 UMOL/D FOR 4 CONSECUTIVE DAYS (STUDY DURATION: 16.5 WK), Route [Inhibitor]: GAVAGE, Species: MOUSE, Strain/Sex: STRAIN-A/FEMALE, Target Tissue: Type of Lesion: LUNG: ADENOMA, Dose [Carcinogen]: 10 UMOL ONCE 2 HR POST LAST AGENT DOSE, Promoter: NONE USED","100%, 89%, 11%, not calculated and 100%, 93%, 7%, not calculated"
same,"tumour outcome (control, treated, inhibition, significance)","Carcinogen: 4-(N-NITROSOMETHYLAMINO)-1-(3-PYRIDYL)-1-BUTANONE, 64091-91-4, Dose [Inhibitor]: 0, 25 UMOL/D FOR 4 CONSECUTIVE DAYS (STUDY DURATION: 16.5 WK), Route [Inhibitor]: GAVAGE, Species: MOUSE, Strain/Sex: STRAIN-A/FEMALE, Target Tissue: Type of Lesion: LUNG: ADENOMA, Dose [Carcinogen]: 10 UMOL ONCE 2 HR POST LAST AGENT DOSE, Promoter: NONE USED","100%, 30%, 70%, p<0.01"
same,"tumour outcome (control, treated, inhibition, significance)","Carcinogen: 7,12-DIMETHYLBENZ[A]ANTHRACENE, 57-97-6, Dose [Inhibitor]: 0, 600 PPM IN DIET FOR DURATION OF STUDY BEGINNING 1 WK PRIOR TO CARCINOGEN DOSE (STUDY DURATION: 107 D), Route [Inhibitor]: ORAL, Species: RAT, Strain/Sex: SPRAGUE-DAWLEY/FEMALE, Target Tissue: Type of Lesion: MAMMARY GLAND: ADENOCARCINOMA, Dose [Carcinogen]: 12 MG ONCE, Promoter: NONE USED","70%, 85%, -21%, not significant"
same,"tumour outcome (control, treated, inhibition, significance)","Carcinogen: 7,12-DIMETHYLBENZ[A]ANTHRACENE, 57-97-6, Dose [Inhibitor]: 0, 1200 PPM IN DIET FOR DURATION OF STUDY BEGINNING 1 WK PRIOR TO CARCINOGEN DOSE (STUDY DURATION: 107 D), Route [Inhibitor]: ORAL, Species: RAT, Strain/Sex: SPRAGUE-DAWLEY/FEMALE, Target Tissue: Type of Lesion: MAMMARY GLAND: ADENOCARCINOMA, Dose [Carcinogen]: 12 MG ONCE, Promoter: NONE USED","70%, 75%, -7%, not significant"
same,"tumour outcome (control, treated, inhibition, significance)","Carcinogen: 7,12-DIMETHYLBENZ[A]ANTHRACENE, 57-97-6, Dose [Inhibitor]: 5.5 MG/G DIET AT AGE 9 WK SIMULTANEOUSLY WITH CARCINOGEN 3/WK FOR 4 WK (STUDY DURATION: 20 WK), Route [Inhibitor]: ORAL, Species: MOUSE, Strain/Sex: ICR/FEMALE, Target Tissue: Type of Lesion: FORESTOMACH: TUMOR, Dose [Carcinogen]: 0.05 MG/G DIET AT AGE 9 WK 3/WK FOR 4 WK, Promoter: NONE USED","93%, 12%, 87%, p<0.001"
same,"tumour outcome (control, treated, inhibition, significance)","Carcinogen: 7,12-DIMETHYLBENZ[A]ANTHRACENE, 57-97-6, Dose [Inhibitor]: 5.5 MG/G DIET AT AGE 9 WK SIMULTANEOUSLY WITH CARCINOGEN 3/WK FOR 4 WK (STUDY DURATION: 20 WK), Route [Inhibitor]: ORAL, Species: MOUSE, Strain/Sex: ICR/FEMALE, Target Tissue: Type of Lesion: LUNG: ADENOMA, Dose [Carcinogen]: 0.05 MG/G DIET AT AGE 9 WK 3/WK FOR 4 WK, Promoter: NONE USED","100%, 89%, 11%, not significant"
same,"tumour outcome (control, treated, inhibition, significance)","Carcinogen: 7,12-DIMETHYLBENZ[A]ANTHRACENE, 57-97-6, Dose [Inhibitor]: 55 MG ONCE 4 HR BEFORE DMBA TREATMENT (STUDY DURATION: 18 WK), Route [Inhibitor]: INTRAGASTRIC, Species: RAT, Strain/Sex: SPRAGUE-DAWLEY/FEMALE, Target Tissue: Type of Lesion: MAMMARY GLAND: TUMOR, Dose [Carcinogen]: 12 MG IN 1 ML OLIVE OIL AT AGE 7 WK, Promoter: NONE USED","100%, 43%, 57%, p<0.001"
same,"tumour outcome (control, treated, inhibition, significance)","Carcinogen: BENZO[A]PYRENE [50-32-8], Dose [Inhibitor]: 0.3 UMOL/G IN DIET FOR 10 WK BEGINNING 1 WK PRIOR TO FIRST CARCINOGEN DOSE (STUDY DURATION: 28 WK), Route [Inhibitor]: ORAL, Species: MOUSE, Strain/Sex: A/J/FEMALE, Target Tissue: Type of Lesion: LUNG: TUMOR, Dose [Carcinogen]: 3 UMOL IN 0.1 ML COTTONSEED OIL 1X/WK FOR 8 WK (STUDY DURATION: 28 WK), Promoter: NONE","100%, 100%, 0%, not calculated"
same,"tumour outcome (control, treated, inhibition, significance)","Carcinogen: BENZO[A]PYRENE [50-32-8], Dose [Inhibitor]: 1 UMOL/G IN DIET FOR 10 WK BEGINNING 1 WK PRIOR TO FIRST CARCINOGEN DOSE (STUDY DURATION: 28 WK), Route [Inhibitor]: ORAL, Species: MOUSE, Strain/Sex: A/J/FEMALE, Target Tissue: Type of Lesion: LUNG: TUMOR, Dose [Carcinogen]: 3 UMOL IN 0.1 ML COTTONSEED OIL 1X/WK FOR 8 WK (STUDY DURATION: 28 WK), Promoter: NONE","100%, 100%, 0%, not calculated"
same,"tumour outcome (control, treated, inhibition, significance)","Carcinogen: BENZO[A]PYRENE [50-32-8], Dose [Inhibitor]: 3 UMOL/G IN DIET FOR 10 WK BEGINNING 1 WK PRIOR TO FIRST CARCINOGEN DOSE (STUDY DURATION: 28 WK), Route [Inhibitor]: ORAL, Species: MOUSE, Strain/Sex: A/J/FEMALE, Target Tissue: Type of Lesion: LUNG: TUMOR, Dose [Carcinogen]: 3 UMOL IN 0.1 ML COTTONSEED OIL 1X/WK FOR 8 WK (STUDY DURATION: 28 WK), Promoter: NONE","100%, 100%, 0%, not calculated"
same,outcome,"Carcinogen: BENZO[A]PYRENE, 50-32-8, Dose [Inhibitor]: 0, 5 UMOL IN ACETONE 4 HR PRIOR TO CARCINOGEN DOSE (STUDY DURATION: 20 WK), Route [Inhibitor]: DERMAL, Species: MOUSE, Strain/Sex: STRAIN-A/FEMALE, Target Tissue: Type of Lesion: SKIN: TUMOR, Dose [Carcinogen]: 0.1 UMOL IN ACETONE ONCE, Promoter: 12-O-TETRADECANOYLPHORBOL-13-ACETATE, 16561-29-8","70%, 65%, 7%, not significant at 15 wk; 95%, 85%, 11%, not significant at 20 wk"
same,"tumour outcome (control, treated, inhibition, significance)","Carcinogen: BENZO[A]PYRENE, 50-32-8, Dose [Inhibitor]: 0, 6.7 UMOL IN COTTONSEED OIL 15 MIN PRIOR TO CARCINOGEN DOSES 1/2 WK FOR 3 TREATMENTS (STUDY DURATION: 26 WK), Route [Inhibitor]: GAVAGE, Species: MOUSE, Strain/Sex: STRAIN-A/FEMALE, Target Tissue: Type of Lesion: FORESTOMACH: TUMOR, Dose [Carcinogen]: 7.9 UMOL IN COTTONSEED OIL 1/2 WK FOR 3 TREATMENTS, Promoter: NONE USED","95%, 90%, 5%, not significant"
same,"tumour outcome (control, treated, inhibition, significance)","Carcinogen: BENZO[A]PYRENE, 50-32-8, Dose [Inhibitor]: 0, 6.7 UMOL IN COTTONSEED OIL 15 MIN PRIOR TO CARCINOGEN DOSES 1/2 WK FOR 3 TREATMENTS (STUDY DURATION: 26 WK), Route [Inhibitor]: GAVAGE, Species: MOUSE, Strain/Sex: STRAIN-A/FEMALE, Target Tissue: Type of Lesion: LUNG: TUMOR, Dose [Carcinogen]: 7.9 UMOL IN COTTONSEED OIL 1/2 WK FOR 3 TREATMENTS, Promoter: NONE USED","95%, 90%, 5%, not significant"
